A short description of series [1]: Compound cytotoxicity, XTT-based colorimetric assay. In kind it is cell-based. The settings on record: human, uninfected MT2 cells, day 4, XTT. The procedure:
Compound cytotoxicity and the corresponding CC50 values were determined using the same protocol as described in the antiviral assay except that uninfected cells were used. Cytotoxicity was assessed on day 4 in uninfected MT2 cells by using a XTT (2,3-bis[2-Methoxy-4-nitro-5-sulfophenyl]-2H-tetrazolium-5-carboxyanilide inner salt)-based colorimetric assay (Sigma-Aldrich, St Louis, Mo.).
A general note: Tetrazolium assays rely on reduction of a dye to a coloured formazan, in cell work by metabolically active cells.

In series [2] the test system is recombinant NL4-3 virus (nef section replaced with Renilla luciferase gene) in MT-2 cells. As to the kind of experiment: HIV cell culture assay (antiviral activity, luciferase readout). The format is cell-based. The conditions noted are these: Renilla, NL43, MT-2 cells infected for 4-5 days with recombinant NL4-3 Renilla luciferase virus, serial dilutions of compound. The procedure:
HIV cell culture assay—MT-2 cells, 293T cells and the proviral DNA clone of NL4-3 virus were obtained from the NIH AIDS Research and Reference Reagent Program. MT-2 cells were propagated in RPMI 1640 media supplemented with 10% heat inactivated fetal bovine serum (FBS), 100 μg/ml penicillin G and up to 100 units/mL streptomycin. The 293T cells were propagated in DMEM media supplemented with 10% heat inactivated FBS, 100 μg/mL penicillin G and 100 μg/mL streptomycin. A recombinant NL4-3 proviral clone, in which a section of the nef gene was replaced with the Renilla luciferase gene, was used to make the reference virus used in these studies. The recombinant virus was prepared through transfection of the recombinant NL4-3 proviral clone into 293T cells using Transit-293 Transfection Reagent from Mirus Bio LLC (Madison, Wis.). Supernatent was harvested after 2-3 days and the amount of virus present was titered in MT-2 cells using luciferase enzyme activity as a marker by measuring luciferase enzyme activity. Luciferase was quantitated using the EnduRen Live Cell Substrate from Promega (Madison, Wis.). Antiviral activities of compounds toward the recombinant virus were quantified by measuring luciferase activity in MT-2 cells infected for 4-5 days with the recombinant virus in the presence of serial dilutions of the compound.
The 50% effective concentration (EC50) was calculated by using the exponential form of the median effect equation where (Fa)=1/[1+(ED50/drug conc.)^m] (Johnson VA, Byington RT. Infectivity Assay. In Techniques in HIV Research. ed. Aldovini A, Walker BD. 71-76. New York: Stockton Press. 1990). Curve fitting and analysis were performed with ActivityBase XE Runner software version 9.1.0.4 using model 203 (ID Business Solutions, LTD, Guildford, UK).

The CC50 is the concentration that lowers cell viability or growth by half. Higher therefore signals lower toxicity to the cells. The term EC50 denotes the concentration needed to bring the measured effect to its halfway point. In the case of `Cn1nc(NS(C)(=O)=O)c2c(Cl)ccc(-n3c([C@H](Cc4cc(F)cc(F)c4)NC(=O)Cn4nc(C(F)F)c5c4C(F)(F)[C@@H]4C[C@H]54)nc4cc(-c5c(F)cc(F)cc5F)ccc4c3=O)c21` [Example 172, N-((S)-1-(3-(4-chloro-1-methyl-3-(methylsulfonamido)-1H-indazol-7-yl)-4-oxo-7-(2,4,6-trifluorophenyl)-3,4-dihydroquinazolin-2-yl)-2-(3,5-difluorophenyl)ethyl)-2-((3bS,4aR)-3-(difluoromethyl)-5,5-difluoro-3b,4,4a,5-tetrahydro-1H-cyclopropa[3,4]cyclopenta[1,2-c]pyrazol-1-yl)acetamide], the CC50 at 4 day in series [1] is over 500 nM. Besides, the EC50 in series [2] was determined as 0.25 nM.
Taken in the same sequence, the figures for `O=C(Cn1ccc(C2CC2)n1)N[C@@H](Cc1cc(F)cc(F)c1)c1nc2cc(-c3cc(F)ccc3F)ccc2c(=O)n1-c1ccc(S(=O)(=O)N2CCOCC2)cc1` [Example 19, (S)-2-(3-cyclopropyl-1H-pyrazol-1-yl)-N-(2-(3,5-difluorophenyl)-1-(7-(2,5-difluorophenyl)-3-(4-(morpholinosulfonyl)phenyl)-4-oxo-3,4-dihydroquinazolin-2-yl)ethyl)acetamide] were over 1000 nM and 8.9 nM.
Taken in the same sequence, the figures for `O=C(Cn1ccc(C2CC2)n1)N[C@@H](Cc1cc(F)cc(F)c1)c1nc2cc(-c3c(F)cccc3F)ccc2c(=O)n1-c1ccc(S(=O)(=O)N2CCOCC2)cc1` [Example 37, (S)-2-(3-cyclopropyl-1H-pyrazol-1-yl)-N-(2-(3,5-difluorophenyl)-1-(7-(2,6-difluorophenyl)-3-(4-(morpholinosulfonyl)phenyl)-4-oxo-3,4-dihydroquinazolin-2-yl)ethyl)acetamide] were over 1000 nM and 8.8 nM.
Taken in the same sequence, the figures for `CS(=O)(=O)Nc1nn(CC(F)(F)F)c2c(-n3c([C@H](Cc4cc(F)cc(F)c4)NC(=O)Cn4nc(C(F)F)c5c4C(F)(F)[C@@H]4C[C@H]54)nc4cc(-c5ccccc5S(C)(=O)=O)ccc4c3=O)ccc(Cl)c12` [Example 167, N-((S)-1-(3-(4-chloro-3-(methylsulfonamido)-1-(2,2,2-trifluoroethyl)-1H-indazol-7-yl)-7-(2-(methylsulfonyl)phenyl)-4-oxo-3,4-dihydroquinazolin-2-yl)-2-(3,5-difluorophenyl)ethyl)-2-((3bS,4aR)-3-(difluoromethyl)-5,5-difluoro-3b,4,4a,5-tetrahydro-1H-cyclopropa[3,4]cyclopenta[1,2-c]pyrazol-1-yl)acetamide] were over 500 nM and 0.08 nM.
Compound `Cn1nc(NS(C)(=O)=O)c2c(Cl)ccc(-n3c([C@H](Cc4cc(F)cc(F)c4)NC(=O)Cn4nc(C(F)F)c5c4C(F)(F)[C@@H]4C[C@H]54)nc4cc(-c5ccc(F)c(F)c5)ccc4c3=O)c21` [Example 173, N-((S)-1-(3-(4-chloro-1-methyl-3-(methylsulfonamido)-1H-indazol-7-yl)-7-(3,4-difluorophenyl)-4-oxo-3,4-dihydroquinazolin-2-yl)-2-(3,5-difluorophenyl)ethyl)-2-((3bS,4aR)-3-(difluoromethyl)-5,5-difluoro-3b,4,4a,5-tetrahydro-1H-cyclopropa[3,4]cyclopenta[1,2-c]pyrazol-1-yl)acetamide] registered a CC50 at 4 day in series [1] of over 500 nM. For the same compound, the EC50 in series [2] was 0.68 nM.
In series [1], `O=C(Cn1nc(C(F)F)c2c1C(F)(F)[C@H]1C[C@@H]21)N[C@@H](Cc1cc(F)cc(F)c1)c1nc2cc(-c3ncccn3)ccc2c(=O)n1-c1ccc(S(=O)(=O)N2CCOCC2)cc1` [Example 27, 2-((3bR,4aS)-3-(difluoromethyl)-5,5-difluoro-3b,4,4a,5-tetrahydro-1H-cyclopropa[3,4]cyclopenta[1,2-c]pyrazol-1-yl)-N-((S)-2-(3,5-difluorophenyl)-1-(3-(4-(morpholinosulfonyl)phenyl)-4-oxo-7-(pyrimidin-2-yl)-3,4-dihydroquinazolin-2-yl)ethyl)acetamide] displayed a CC50 at 4 day of over 1000 nM. Moreover, the EC50 in series [2] was determined as 5.8 nM.
Taken in the same sequence, the figures for `COc1ccccc1-c1ccc2c(=O)n(-c3ccc(S(=O)(=O)N4CCOCC4)cc3)c([C@H](Cc3cc(F)cc(F)c3)NC(=O)Cn3ccc(C4CC4)n3)nc2c1` [Example 142, (S)-2-(3-cyclopropyl-1H-pyrazol-1-yl)-N-(2-(3,5-difluorophenyl)-1-(7-(2-methoxyphenyl)-3-(4-(morpholinosulfonyl)phenyl)-4-oxo-3,4-dihydroquinazolin-2-yl)ethyl)acetamide] were over 1000 nM and 66 nM.
Compound `Cn1nc(NS(C)(=O)=O)c2c(Cl)ccc(-n3c([C@H](Cc4cc(F)cc(F)c4)NC(=O)Cn4nc(C(F)F)c5c4C(F)(F)[C@@H]4C[C@H]54)nc4cc(-c5ccccc5S(C)(=O)=O)ccc4c3=O)c21` (atropisomer, axis not shown; (aR)) [Example 109, N-((S)-1-(3-(4-chloro-1-methyl-3-(methylsulfonamido)-1H-indazol-7-yl)-7-(2-(methylsulfonyl)phenyl)-4-oxo-3,4-dihydroquinazolin-2-yl)-2-(3,5-difluorophenyl)ethyl)-2-((3bS,4aR)-3-(difluoromethyl)-5,5-difluoro-3b,4,4a,5-tetrahydro-1H-cyclopropa[3,4]cyclopenta[1,2-c]pyrazol-1-yl)acetamide] returned a CC50 at 4 day in series [1] of over 1000 nM. Besides, in series [2], the EC50 was 0.11 nM.
Taken in the same sequence, the figures for `COc1ccnc(-c2ccc3c(=O)n(-c4ccc(Cl)c5c(NS(C)(=O)=O)nn(C)c45)c([C@H](Cc4cc(F)cc(F)c4)NC(=O)Cn4nc(C(F)F)c5c4C(F)(F)[C@@H]4C[C@H]54)nc3c2)n1` (atropisomer, axis not shown; (aR)) [Example 117, N-((S)-1-(3-(4-chloro-1-methyl-3-(methylsulfonamido)-1H-indazol-7-yl)-7-(4-methoxypyrimidin-2-yl)-4-oxo-3,4-dihydroquinazolin-2-yl)-2-(3,5-difluorophenyl)ethyl)-2-((3bS,4aR)-3-(difluoromethyl)-5,5-difluoro-3b,4,4a,5-tetrahydro-1H-cyclopropa[3,4]cyclopenta[1,2-c]pyrazol-1-yl)acetamide] were over 500 nM and 0.058 nM.
For `Cn1nc(NS(C)(=O)=O)c2c(Cl)ccc(-n3c([C@H](Cc4cc(F)cc(F)c4)NC(=O)Cn4nc(C(F)F)c5c4C(F)(F)[C@@H]4C[C@H]54)nc4cc(-c5cnccc5F)ccc4c3=O)c21` (atropisomer, axis not shown; (aR)) [Example 96, N-((S)-1-(3-(4-chloro-1-methyl-3-(methylsulfonamido)-1H-indazol-7-yl)-7-(4-fluoropyridin-3-yl)-4-oxo-3,4-dihydroquinazolin-2-yl)-2-(3,5-difluorophenyl)ethyl)-2-((3bS,4aR)-3-(difluoromethyl)-5,5-difluoro-3b,4,4a,5-tetrahydro-1H-cyclopropa[3,4]cyclopenta[1,2-c]pyrazol-1-yl)acetamide], the CC50 at 4 day in series [1] is over 1000 nM. In addition, the EC50 in series [2] worked out at 0.076 nM.

The record behind these values is US11505543B2, “4-oxo-3,4-dihydroquinazoline compounds as inhibitors of human immunodeficiency virus replication” (VIIV HEALTHCARE UK (NO.5) LIMITED, priority 2018, dated 2022).
